Measured values: ChEMBL document CHEMBL4673297, “Glutathione peroxidase-like functions of 1,2-diselenane-4,5-diol and its amphiphilic derivatives: Switchable catalytic cycles depending on peroxide substrates” (Bioorg Med Chem, 2021)
Active and inactive are the calls of the source. No cut-off for these calls is given here.

Assays:
[1] = Glutathione peroxidase-like catalytic activity assessed as drug oxidation by measuring (S)-2-Oxo-2lambda(4)-[1,2,7]oxadiselenepan-4-yl-ammonium formation incubated with 8.6 mM H2O2 in water at 3.8 mM incubated for 3 hrs by ESI(+)-MS spectral analysis; type: functional
[2] = Glutathione peroxidase-like catalytic activity assessed as drug oxidation by measuring (S)-2-Oxo-2lambda(4)-[1,2]diselenan-4-yl-ammonium formation incubated with 3.8 mM H2O2 in water at 3.8 mM incubated for 30 mins by ESI(+)-MS spectral analysis; type: functional
[3] = Glutathione peroxidase-like catalytic activity assessed as drug oxidation by measuring (S)-2,7-Dioxo-2lambda(4),7lambda(4)-[1,2,7]oxadiselenepan-4-yl-ammonium formation incubated with 3.8 mM H2O2 in water at 3.8 mM incubated for 30 mins by ESI(+)-MS spectral analysis; type: functional
[4] = Glutathione peroxidase-like catalytic activity assessed as drug oxidation by measuring (S)-[1,2,7]Oxadiselenepan-4-yl-ammonium formation incubated with 3.8 mM H2O2 in water at 3.8 mM incubated for 30 mins by ESI(+)-MS spectral analysis; type: functional
[5] = Glutathione peroxidase-like catalytic activity assessed as drug oxidation by measuring (S)-2,7-Dioxo-2lambda(4),7lambda(4)-[1,2,7]oxadiselenepan-4-yl-ammonium formation incubated with 8.6 mM H2O2 and 8.6 mM reduced DTT in water at 3.8 mM incubated for 2 mins by ESI(+)-MS spectral analysis; type: functional
[6] = Glutathione peroxidase-like catalytic activity assessed as drug oxidation by measuring (2S)-1,4-diseleninobutan-2-aminium formation incubated with 8.6 mM H2O2 in water at 3.8 mM incubated for 3 hrs by ESI(+)-MS spectral analysis; type: functional
[7] = Glutathione peroxidase-like catalytic activity assessed as drug oxidation by measuring (S)-2-Oxo-2lambda(4)-[1,2,7]oxadiselenepan-4-yl-ammonium formation incubated with 8.6 mM H2O2 and 8.6 mM reduced DTT in water at 3.8 mM incubated for 2 mins by ESI(+)-MS spectral analysis; type: functional
[8] = Glutathione peroxidase-like catalytic activity assessed as drug oxidation by measuring (S)-[1,2,7]Oxadiselenepan-4-yl-ammonium formation incubated with 8.6 mM H2O2 and 8.6 mM reduced DTT in water at 3.8 mM incubated for 2 mins by ESI(+)-MS spectral analysis; type: functional
[9] = Glutathione peroxidase-like catalytic activity assessed as drug oxidation by measuring (S)-2-Oxo-2lambda(4)-[1,2]diselenan-4-yl-ammonium formation incubated with 8.6 mM H2O2 in water at 3.8 mM incubated for 3 hrs by ESI(+)-MS spectral analysis; type: functional
[10] = Glutathione peroxidase-like catalytic activity assessed as drug oxidation by measuring (2S)-1,4-diseleninobutan-2-aminium formation incubated with 8.6 mM H2O2 and 8.6 mM reduced DTT in water at 3.8 mM incubated for 2 mins by ESI(+)-MS spectral analysis; type: functional
[11] = Glutathione peroxidase-like catalytic activity assessed as drug oxidation by measuring (S)-[1,2,7]Oxadiselenepan-4-yl-ammonium formation incubated with 8.6 mM H2O2 in water at 3.8 mM incubated for 3 hrs by ESI(+)-MS spectral analysis; type: functional
[12] = Glutathione peroxidase-like catalytic activity assessed as drug oxidation by measuring (S)-2-Oxo-2lambda(4)-[1,2]diselenan-4-yl-ammonium formation incubated with 8.6 mM H2O2 and 8.6 mM reduced DTT in water at 3.8 mM incubated for 2 mins by ESI(+)-MS spectral analysis; type: functional
[13] = Glutathione peroxidase-like catalytic activity assessed as drug oxidation by measuring (S)-2-Oxo-2lambda(4)-[1,2,7]oxadiselenepan-4-yl-ammonium formation incubated with 3.8 mM H2O2 in water at 3.8 mM incubated for 30 mins by ESI(+)-MS spectral analysis; type: functional
[14] = Glutathione peroxidase-like catalytic activity assessed as drug oxidation by measuring (S)-2,7-Dioxo-2lambda(4),7lambda(4)-[1,2,7]oxadiselenepan-4-yl-ammonium formation incubated with 8.6 mM H2O2 in water at 3.8 mM incubated for 3 hrs by ESI(+)-MS spectral analysis; type: functional
[15] = (§1) Glutathione peroxidase-like catalytic antioxidant activity in pH 7 phosphate buffer assessed as catalytic reduction of H2O2 by measuring initial velocity at 100 uM and 25 degreeC using GSH as mono-thiol co-substrate in presence of NADPH by UV absorbance analysis (reference value: 11 +/- 0.4 microM/min); type: functional
[16] = Solubility of the compound in phosphate buffer solution at pH 7.5 in presence of reduced DTT; type: physicochemical
HeLa [17] = experiment: (§2) Cytotoxicity against human HeLa cells assessed as cell viability at 20 uM measured after 15 hrs by MTT assay relative to control; type: cell-based; conditions: hela, 15 h, 20 µM
HeLa [18] = experiment: Protection against H2O2-induced oxidative stress in human HeLa cells assessed as cell viability at 20 uM preincubated with compound for 15 hrs followed by drug wash-out and later incubated with H2O2 for 4 hrs by MTT assay; type: functional, cell-based
HeLa [19] = experiment: Cytotoxicity against human HeLa cells assessed as reduction in cell viability at 100 uM measured after 15 hrs hrs by MTT assay; type: cell-based
[20] = Glutathione peroxidase-like catalytic anti-lipid peroxidation activity assessed as inhibition of AAPH-induced lipid peroxidation incubated for 3 hrs using soybean lecithin/cholesterol-liposomes by TBARS assay; type: physicochemical
HeLa [21] = experiment: Protection against AAPH-induced oxidative stress in human HeLa cells assessed as increase in cell viability at 5 to 20 uM preincubated for 15 hrs followed by incubation with AAPH for 3 hrs by MTT assay relative to control; type: functional; conditions: dose 5-20 µM; time 18 hrs
[22] = Antioxidant activity assessed as radical scavenging activity by measuring DPBQ generation using DPPD and AMVN as radical initiator at 0.5 mM preincubated for 5 mins with DPPD followed by AMVN addition and measured for 30 mins by UV/Vis-spectrophotometry analysis; type: functional; conditions: time 35.0 min
[23] = as §1, with “0.2 mM” for “100 uM”, “reduced DTT” for “GSH”, “di-thiol” for “mono-thiol”, “72+/- 3” for “11 +/- 0.4”; type: functional
[24] = Glutathione peroxidase-like catalytic antioxidant activity assessed as CST-HCl thiol co-substrate oxidation by measuring disulfide formation at 11.5 umol in presence of CHP lipophilic peroxide in 10 mM aqueous HCl/CH2Cl2 solution incubated for 24 hrs by 1H-NMR spectroscopy; type: functional; conditions: dose 11.5 µmol
[25] = Glutathione peroxidase-like catalytic antioxidant activity assessed as CST-HCl thiol co-substrate oxidation by measuring disulfide formation at 11.5 umol in presence of CHP lipophilic peroxide in water/CH2Cl2 solution incubated for 24 hrs by 1H-NMR spectroscopy; type: functional; conditions: dose 11.5 µmol
[26] = Glutathione peroxidase-like catalytic antioxidant activity in pH 7 phosphate buffer assessed as catalytic reduction of H2O2 by measuring lipoic acid formation using DHLA as co-substrate at 0.2 mM in presence of NADPH by UV absorbance analysis; type: functional
[27] = as §2; type: cell-based; conditions: HeLa cells, read-out: Activity
[28] = Glutathione peroxidase-like catalytic anti-lipid peroxidation activity assessed as inhibition of AAPH-induced lipid peroxidation incubated for 3 hrs in presence of (+/-)-trans-5-Hydroxy-1,2-diselenan-4-yl dodecanoate using soybean lecithin/cholesterol-liposomes by TBARS assay; type: physicochemical

SMILES: N[C@H]1CC[Se][Se]C1
- Drug metabolism [1]: Metabolite detected
- Drug metabolism [2]: Metabolite detected
- Drug metabolism [3]: Metabolite detected
- Drug metabolism [4]: Metabolite detected
- Drug metabolism [5]: Metabolite not detected
- Drug metabolism [6]: Metabolite detected
- Drug metabolism [7]: Metabolite not detected
- Drug metabolism [8]: Metabolite detected
- Drug metabolism [9]: Metabolite detected
- Drug metabolism [10]: Metabolite not detected
- Drug metabolism [11]: Metabolite detected
- Drug metabolism [12]: Metabolite detected
- Drug metabolism [13]: Metabolite detected
- Drug metabolism [14]: Metabolite detected

SMILES: O=C(O[C@@H]1C[Se][Se]C[C@H]1O)c1ccc2ccccc2c1 (racemic)
- V0 [15]: 11.3 µM/min
- solubility [16]: Insoluble
- Activity (HeLa [17]): Non-Toxic
- Activity (HeLa [18]): inactive
- Activity (HeLa [19]): Toxic
- IC50 [20]: 15.5 µM
- fold change (FC) (HeLa [21]): 1.5

SMILES: CCCCCCCCCCCCCC(=O)O[C@@H]1C[Se][Se]C[C@H]1O (racemic)
- Activity [22]: inactive
- V0 [15]: 9.1 µM/min
- solubility [16]: Soluble
- Activity (HeLa [17]): Non-Toxic
- Activity (HeLa [18]): inactive
- Activity (HeLa [19]): Non-Toxic
- IC50 [20]: 16.7 µM
- V0 [23]: 63 µM/min
- Activity [24]: Active
- Activity [25]: Active
- fold change (FC) (HeLa [21]): 1.5

SMILES: c1ccc([Se][Se]c2ccccc2)cc1
- IC50 [20]: 70.1 µM

SMILES: CCCCCCCC(=O)O[C@@H]1C[Se][Se]C[C@H]1O (racemic)
- V0 [15]: 11.9 µM/min
- solubility [16]: Soluble
- Activity (HeLa [17]): Non-Toxic
- Activity (HeLa [18]): inactive
- Activity (HeLa [19]): Non-Toxic
- IC50 [20]: 30 µM
- V0 [23]: 109 µM/min
- fold change (FC) (HeLa [21]): 1.5

SMILES: CCCCCCCCCC(=O)O[C@@H]1C[Se][Se]C[C@H]1O (racemic)
- V0 [15]: 10.9 µM/min
- solubility [16]: Soluble
- Activity (HeLa [17]): Non-Toxic
- Activity (HeLa [18]): inactive
- Activity (HeLa [19]): Non-Toxic
- IC50 [20]: 13.2 µM
- V0 [23]: 172 µM/min
- fold change (FC) (HeLa [21]): 1.5

SMILES: CCC(=O)O[C@@H]1C[Se][Se]C[C@H]1O (racemic)
- V0 [15]: 23 µM/min
- solubility [16]: Soluble
- Activity (HeLa [17]): Toxic
- Activity (HeLa [18]): inactive
- Activity (HeLa [19]): Toxic
- IC50 [20]: 121 µM
- Activity [26]: Active
- V0 [23]: 330 µM/min

SMILES: CCCCCC(=O)O[C@@H]1C[Se][Se]C[C@H]1O (racemic)
- V0 [15]: 14.9 µM/min
- solubility [16]: Soluble
- Activity (HeLa [17]): Toxic
- Activity (HeLa [18]): inactive
- Activity (HeLa [19]): Toxic
- IC50 [20]: 42.2 µM
- Activity [26]: Active
- V0 [23]: 149 µM/min

SMILES: O=c1c2ccccc2[se]n1-c1ccccc1 [EBSELEN]
- V0 [15]: 32.6 µM/min
- viability at 15 h, 20 µM [27]: 80%
- IC50 [20]: 80.4 µM
- V0 [23]: 202 µM/min

SMILES: CC1=NN(c2ccccc2)C(=O)C1 [EDARAVONE]
- IC50 [28]: 18.7 µM
- IC50 [20]: 29.3 µM

SMILES: CCCCCCCCCCCC(=O)O[C@@H]1C[Se][Se]C[C@H]1O (racemic)
- V0 [15]: 9.3 µM/min
- solubility [16]: Soluble
- Activity (HeLa [17]): Non-Toxic
- Activity (HeLa [18]): inactive
- Activity (HeLa [19]): Non-Toxic
- IC50 [20]: 10.7 µM
- V0 [23]: 122 µM/min
- fold change (FC) (HeLa [21]): 1.5

SMILES: O[C@@H]1C[Se]C[C@H]1O
- IC50 [15]: Not Active
- IC50 [23]: Not Active

SMILES: O=C(O[C@@H]1C[Se][Se]C[C@H]1O)c1ccccc1 (racemic)
- V0 [15]: 12.7 µM/min
- solubility [16]: Soluble
- Activity (HeLa [17]): Toxic
- Activity (HeLa [18]): inactive
- Activity (HeLa [19]): Toxic
- IC50 [20]: 27.3 µM
- V0 [23]: 116 µM/min
